Laboratory results published in patent US6946297B2, “System for stabilizing samples” (priority 1999, dated 2005).

Key:
Type in all cases: cell-based
Escherichia coli = test: Survival of organisms in inoculated urine with preservative components, 24 hours at room temperature; design: key to Survival value esco: 24 h count / control count; 1 = no change, 0.1 = 1-log decrease
Protocol: (§1) Antimicrobial activity for each active ingredient in the Chemistat I formulations was first determined for representative organisms listed in Table I. A culture for each organism of interest on blood agar was incubated at 36° C. overnight. About two to three colonies of the organism were transferred via sterile swab from the blood agar culture into a 5 ml Mueller-Hinton broth culture tube, which was then incubated on a rotator for about two to three hours at 36° C. Using a spectrophotometer set at a wavelength of 630 nm, the turbidity of broth culture was adjusted by the addition of Mueller-Hinton broth to an optical density equivalent to approximately 1×10^8 colony forming units (cfu)/ml to form an inoculum solution. An aliquot of the inoculum solution was plated onto blood agar to determine the actual control organism count. For each component listed in Table II, the component was added to filter-sterilized pooled normal urine at the concentration given in Table II to form a test sample. The test sample was then inoculated with an aliquot of the inoculum solution providing a final organism count of approximately 1×10^6 cfu/ml of test sample. Immediately after thorough mixing, an aliquot of the test sample was removed and serially diluted in PBS, and serial dilutions were plated onto blood agar to determine the Time Zero organism count. The inoculated plates were incubated at 36° C., and organism counts were recorded after 18-24 hours. After incubating the test sample for 24 hours at room temperature, an aliquot of the test sample was again removed, serially diluted in PBS and plated onto blood agar. After incubating for 18-24 hours at 36° C., organism counts were obtained. The organism count obtained after 24 hours incubation at room temperature was divided by the control organism count to provide the survival value of each organism as recorded in Table II. With respect to changes in microbial count, a survival value of 1 represents no change; a survival value of 0.1 indicates a 1-log decrease; a survival value of 10 indicates a 1-log increase; and a survival value of 0.000 represents a decrease of greater than or equal to 3-logs. In comparison, the lower the survival value, the greater the component's capacity for controlling organism growth.

Klebsiella pneumoniae = test: as above; conditions: single component at 0.2 μl/ml
Protocol: as §1

Proteus vulgaris = test: as above; conditions: single component at 0.2 μl/ml
Protocol: as §1

Pseudomonas aeruginosa = test: as above
Protocol: as §1

Enterococcus faecalis = test: as above; design: key to Survival value enfa: 24 h count / control count; 1 = no change, 0.1 = 1-log decrease
Protocol: as §1

Candida albicans = test: as above; design: key to Survival value caal: 24 h count / control count; 1 = no change, 0.1 = 1-log decrease
Protocol: as §1

Enterobacter aerogenes = test: as above; design: key to Survival value enae: 24 h count / control count; 1 = no change, 0.1 = 1-log decrease
Protocol: as §1

[1] = tested on: microorganisms of interest; test: Antimicrobial (cidal) activity against the organisms of interest taken together; conditions: component alone
Protocol: as §1, with “With respect to changes in microbial count, a survival value of 1 represents no change; a survival value of 0.1 indicates a 1-log decrease; a survival value of 10 indicates a 1-log increase; and a survival value of 0.000 represents a decrease of greater than or equal to 3-logs. In comparison, the lower the survival value, the greater the component's capacity for controlling organism growth.” left out

For CC=Cc1ccc(O)c(OC)c1 [Isoeugenol, isoeugenol], the “Concentration with cidal activity against Escherichia coli” value (Escherichia coli; component alone) was 1.5 μl/ml, the Survival value esco (Escherichia coli; single component at 0.2 μl/ml) was “tntc” and the Survival value esco (Escherichia coli; single component at 0.5 μl/ml) was “tntc”. It also gave a Survival value esco (Escherichia coli; single component at 1.5 μl/ml) of 0.000, a Survival value esco (Escherichia coli; single component at 2.5 μl/ml) of 0.000 and a Survival value esco (Escherichia coli; single component at 4.6 μl/ml) of 0.000. For the same molecule, the Survival value klpn (Klebsiella pneumoniae) was “tntc”, the Survival value prvu (Proteus vulgaris) was “tntc” and the Survival value psae (Pseudomonas aeruginosa; single component at 0.2 μl/ml) was “tntc”. The Survival value psae (Pseudomonas aeruginosa; single component at 1.5 μl/ml) was “tntc”, the Survival value psae (Pseudomonas aeruginosa; single component at 2.5 μl/ml) was 0.398 and the “Concentration with cidal activity against Enterococcus faecalis” value (Enterococcus faecalis; component alone) was greater than 4.6 μl/ml. For the same molecule, the Survival value enfa (Enterococcus faecalis; single component at 0.2 μl/ml) was “tntc”, the Survival value enfa (Enterococcus faecalis; single component at 0.5 μl/ml) was “tntc” and the Survival value enfa (Enterococcus faecalis; single component at 1.5 μl/ml) was “tntc”. The Survival value enfa (Enterococcus faecalis; single component at 2.5 μl/ml) was 0.750, the Survival value enfa (Enterococcus faecalis; single component at 4.6 μl/ml) was 0.460 and the “Concentration with cidal activity against Candida albicans” value (Candida albicans; component alone) was 2.5 μl/ml. It also gave a Survival value caal (Candida albicans; single component at 0.2 μl/ml) of 0.160, a Survival value caal (Candida albicans; single component at 0.5 μl/ml) of 2.786 and a Survival value caal (Candida albicans; single component at 1.5 μl/ml) of 0.152. For the same molecule, the Survival value caal (Candida albicans; single component at 2.5 μl/ml) was 0.000, the Survival value caal (Candida albicans; single component at 4.6 μl/ml) was 0.000 and the “Concentration with cidal activity against Enterobacter aerogenes” value (Enterobacter aerogenes; component alone) was 2.5 μl/ml. For the same molecule, the Survival value enae (Enterobacter aerogenes; single component at 1.5 μl/ml) was “tntc”, the Survival value enae (Enterobacter aerogenes; single component at 2.5 μl/ml) was 0.000 and the “Concentration required for cidal antimicrobial action for many organisms of interest” value [1] was “greater than 1.5 μg/ml”.
